{
  "source": "ChEMBL document CHEMBL4265887",
  "about": "(Bioorg Med Chem Lett, 2018)",
  "note": "pIC50: −log10 of the molar value. Activity calls are given as the source filed them. The calls are words filed in the database; no cut-off is given here.",
  "data": [
    {"tested_on": "HCT-116", "experiment": "Cytotoxicity against human HCT116 cells assessed as reduction in cell viability after 48 hrs by MTT assay", "format": "functional, cell-based", "conditions": "HCT-116, 48 h", "values": [
      {"smiles": "CNC(=O)Nc1sc2c(C(C)C)cc(NS(C)(=O)=O)cc2c1C(N)=O", "pIC50": 5.83},
      {"smiles": "CNC(=O)Nc1sc2c(C(C)C)cc(NS(=O)(=O)c3ccc(C)cc3)cc2c1C(N)=O", "pIC50": 5.42},
      {"smiles": "CNC(=O)Nc1sc2c(C3CC3)cc(NS(=O)(=O)c3ccn(C)n3)cc2c1C(N)=O", "pIC50": 5.92},
      {"smiles": "CNC(=O)Nc1sc2c(C)cc(NS(=O)(=O)c3cccs3)cc2c1C(N)=O", "pIC50": 6.10},
      {"smiles": "CCCS(=O)(=O)Nc1cc(C(C)C)c2sc(NC(=O)C3CC3)c(C(N)=O)c2c1", "pIC50": 5.21},
      {"smiles": "CNC(=O)Nc1sc2c(C)cc(NS(=O)(=O)c3ccco3)cc2c1C(N)=O", "pIC50": 6.02},
      {"smiles": "CNC(=O)Nc1sc2c(C)cc(NS(=O)(=O)c3ccc(C)s3)cc2c1C(N)=O", "pIC50": 5.63},
      {"smiles": "CC(C)c1cc(NS(C)(=O)=O)cc2c(C(N)=O)c(NC(=O)C3CC3)sc12", "pIC50": 5.86},
      {"smiles": "CCS(=O)(=O)Nc1cc(C(C)C)c2sc(NC(=O)C3CC3)c(C(N)=O)c2c1", "pIC50": 5.63},
      {"smiles": "CNC(=O)Nc1sc2c(C(C)C)cc(NS(=O)(=O)c3ccccc3C)cc2c1C(N)=O", "pIC50": 5.75},
      {"smiles": "CNC(=O)Nc1sc2c(C(C)C)cc(NS(=O)(=O)c3cccc(Cl)c3)cc2c1C(N)=O", "pIC50": 5.99},
      {"smiles": "CNC(=O)Nc1sc2c(C(C)C)cc(NS(=O)(=O)c3ccccc3Cl)cc2c1C(N)=O", "pIC50": 5.47},
      {"smiles": "CNC(=O)Nc1sc2c(C(C)C)cc(NS(=O)(=O)C(C)C)cc2c1C(N)=O", "pIC50": 5.59},
      {"smiles": "Cc1cccc(S(=O)(=O)Nc2cc(C(C)C)c3sc(NC(=O)C4CC4)c(C(N)=O)c3c2)c1", "pIC50": 5.05},
      {"smiles": "CNC(=O)Nc1sc2c(C3CC3)cc(NS(=O)(=O)c3cccs3)cc2c1C(N)=O", "pIC50": 5.82},
      {"smiles": "CNC(=O)Nc1sc2c(C(C)C)cc(NS(=O)(=O)c3ccco3)cc2c1C(N)=O", "pIC50": 5.89},
      {"smiles": "CC(C)c1cc(NS(=O)(=O)c2cccs2)cc2c(C(N)=O)c(NC(=O)C3CC3)sc12", "pIC50": 5.34},
      {"smiles": "CNC(=O)Nc1sc2c(C(C)C)cc(NS(=O)(=O)c3ccc(Cl)cc3)cc2c1C(N)=O", "pIC50": 5.15},
      {"smiles": "CNC(=O)Nc1sc2c(C)cc(NS(=O)(=O)c3ccn(C)n3)cc2c1C(N)=O", "pIC50": 5.01},
      {"smiles": "CCCS(=O)(=O)Nc1cc(C(C)C)c2sc(NC(=O)NC)c(C(N)=O)c2c1", "pIC50": 6.11},
      {"smiles": "Cc1cc(Nc2cc(N3CCN(C)CC3)nc(Sc3ccc(NC(=O)C4CC4)cc3)n2)n[nH]1", "note": "[TOZASERTIB]", "pIC50": 6.35},
      {"smiles": "CNC(=O)Nc1sc2c(C(C)C)cc(NS(=O)(=O)c3ccc(C)s3)cc2c1C(N)=O", "pIC50": 5.63},
      {"smiles": "CC(C)c1cc(NS(=O)(=O)C2CCCCC2)cc2c(C(N)=O)c(NC(=O)C3CC3)sc12", "pIC50": 5.00},
      {"smiles": "CC(C)c1cc(NS(=O)(=O)c2ccn(C)n2)cc2c(C(N)=O)c(NC(=O)C3CC3)sc12", "pIC50": 6.12},
      {"smiles": "CCCCS(=O)(=O)Nc1cc(C(C)C)c2sc(NC(=O)NC)c(C(N)=O)c2c1", "pIC50": 6.02}
    ]},
    {"tested_on": "HCT-15", "experiment": "Cytotoxicity against human HCT15 cells assessed as reduction in cell viability after 48 hrs by MTT assay", "format": "functional, cell-based", "conditions": "HCT-15, 48 h", "values": [
      {"smiles": "CNC(=O)Nc1sc2c(C(C)C)cc(NS(C)(=O)=O)cc2c1C(N)=O", "pIC50": 5.38},
      {"smiles": "CNC(=O)Nc1sc2c(C)cc(NS(=O)(=O)c3cccs3)cc2c1C(N)=O", "pIC50": 5.66},
      {"smiles": "CNC(=O)Nc1sc2c(C)cc(NS(=O)(=O)c3ccco3)cc2c1C(N)=O", "pIC50": 5.82},
      {"smiles": "CNC(=O)Nc1sc2c(C(C)C)cc(NS(=O)(=O)c3cccc(Cl)c3)cc2c1C(N)=O", "pIC50": 5.25},
      {"smiles": "CNC(=O)Nc1sc2c(C(C)C)cc(NS(=O)(=O)C(C)C)cc2c1C(N)=O", "pIC50": 5.06},
      {"smiles": "CNC(=O)Nc1sc2c(C)cc(NS(=O)(=O)c3ccn(C)n3)cc2c1C(N)=O", "pIC50": "< 5.00"},
      {"smiles": "CCCS(=O)(=O)Nc1cc(C(C)C)c2sc(NC(=O)NC)c(C(N)=O)c2c1", "pIC50": 5.35},
      {"smiles": "Cc1cc(Nc2cc(N3CCN(C)CC3)nc(Sc3ccc(NC(=O)C4CC4)cc3)n2)n[nH]1", "note": "[TOZASERTIB]", "pIC50": 5.91},
      {"smiles": "CNC(=O)Nc1sc2c(C(C)C)cc(NS(=O)(=O)c3ccc(C)s3)cc2c1C(N)=O", "pIC50": 5.39},
      {"smiles": "CC(C)c1cc(NS(=O)(=O)c2ccn(C)n2)cc2c(C(N)=O)c(NC(=O)C3CC3)sc12", "pIC50": 5.90},
      {"smiles": "CCCCS(=O)(=O)Nc1cc(C(C)C)c2sc(NC(=O)NC)c(C(N)=O)c2c1", "pIC50": 5.39}
    ]},
    {"tested_on": "HCT-116", "experiment": "Inhibition of cytokinesis in human HCT116 cells at 100 nM after 24 hrs by propidium iodide/RNase staining-based flow cytometric analysis", "format": "functional, cell-based", "conditions": "not given", "values": [
      {"smiles": "Cc1cc(Nc2cc(N3CCN(C)CC3)nc(Sc3ccc(NC(=O)C4CC4)cc3)n2)n[nH]1", "note": "[TOZASERTIB]", "Cytokinesis inhibition (active/inactive call)": "Active"}
    ]},
    {"tested_on": "HCT-116", "experiment": "Inhibition of cytokinesis in human HCT116 cells at 1 uM after 24 hrs by propidium iodide/RNase staining-based flow cytometric analysis", "format": "functional, cell-based", "conditions": "not given", "values": [
      {"smiles": "Cc1cc(Nc2cc(N3CCN(C)CC3)nc(Sc3ccc(NC(=O)C4CC4)cc3)n2)n[nH]1", "note": "[TOZASERTIB]", "Cytokinesis inhibition (active/inactive call)": "Active"}
    ]},
    {"tested_on": "not listed separately", "experiment": "(§1) Solubility of the compound in phosphate buffer of pH 7.4 after 24 hrs by RP-HPLC analysis", "format": "physicochemical", "conditions": "buffer, pH 7.4, 24 h", "units": {"solubility": "µM"}, "values": [
      {"smiles": "Cc1cc(Nc2cc(N3CCN(C)CC3)nc(Sc3ccc(NC(=O)C4CC4)cc3)n2)[nH]n1", "note": "[TOZASERTIB]", "solubility": 120}
    ]},
    {"tested_on": "not listed separately", "experiment": "as §1", "format": "physicochemical", "conditions": "phosphate buffer, pH 7.4", "units": {"solubility at 24 h": "µM"}, "values": [
      {"smiles": "CNC(=O)Nc1sc2c(C3CC3)cc(NS(=O)(=O)c3ccn(C)n3)cc2c1C(N)=O", "solubility at 24 h": 4.8},
      {"smiles": "CNC(=O)Nc1sc2c(C)cc(NS(=O)(=O)c3cccs3)cc2c1C(N)=O", "solubility at 24 h": 12.8},
      {"smiles": "CNC(=O)Nc1sc2c(C)cc(NS(=O)(=O)c3ccco3)cc2c1C(N)=O", "solubility at 24 h": 3.9},
      {"smiles": "CNC(=O)Nc1sc2c(C3CC3)cc(NS(=O)(=O)c3cccs3)cc2c1C(N)=O", "solubility at 24 h": 1.1},
      {"smiles": "CNC(=O)Nc1sc2c(C(C)C)cc(NS(=O)(=O)c3ccco3)cc2c1C(N)=O", "solubility at 24 h": 6.7},
      {"smiles": "CCCS(=O)(=O)Nc1cc(C(C)C)c2sc(NC(=O)NC)c(C(N)=O)c2c1", "solubility at 24 h": 3},
      {"smiles": "CCCCS(=O)(=O)Nc1cc(C(C)C)c2sc(NC(=O)NC)c(C(N)=O)c2c1", "solubility at 24 h": 4.6}
    ]},
    {"tested_on": "not listed separately", "experiment": "Solubility of the compound in phosphate buffer of pH 2 after 24 hrs by RP-HPLC analysis", "format": "physicochemical", "conditions": "not given", "units": {"solubility at 24 h": "µM"}, "values": [
      {"smiles": "CNC(=O)Nc1sc2c(C3CC3)cc(NS(=O)(=O)c3ccn(C)n3)cc2c1C(N)=O", "solubility at 24 h": 3.7},
      {"smiles": "CNC(=O)Nc1sc2c(C)cc(NS(=O)(=O)c3cccs3)cc2c1C(N)=O", "solubility at 24 h": 5.3},
      {"smiles": "CNC(=O)Nc1sc2c(C)cc(NS(=O)(=O)c3ccco3)cc2c1C(N)=O", "solubility at 24 h": 1.1},
      {"smiles": "CNC(=O)Nc1sc2c(C(C)C)cc(NS(=O)(=O)c3ccco3)cc2c1C(N)=O", "solubility at 24 h": 3.3},
      {"smiles": "Cc1cc(Nc2cc(N3CCN(C)CC3)nc(Sc3ccc(NC(=O)C4CC4)cc3)n2)[nH]n1", "note": "[TOZASERTIB]", "solubility at 24 h": 120},
      {"smiles": "CCCS(=O)(=O)Nc1cc(C(C)C)c2sc(NC(=O)NC)c(C(N)=O)c2c1", "solubility at 24 h": 2.8},
      {"smiles": "CCCCS(=O)(=O)Nc1cc(C(C)C)c2sc(NC(=O)NC)c(C(N)=O)c2c1", "solubility at 24 h": 4.3}
    ]}
  ]
}
